Source: patent US20260284028A1, “FUSED BICYCLIC HETEROCYCLYL COMPOUNDS AS CCR4 MODULATORS” (AURIGENE ONCOLOGY LIMITED, priority 2023, published 2026)
Where two headings read alike, the source gives them in different places.

Target: T1, CCR4 (Homo sapiens, UniProt P51679)
T1 construct: expressed in transfected cells; host or cells: CHO-K1
T1 sequence (P51679 1-360): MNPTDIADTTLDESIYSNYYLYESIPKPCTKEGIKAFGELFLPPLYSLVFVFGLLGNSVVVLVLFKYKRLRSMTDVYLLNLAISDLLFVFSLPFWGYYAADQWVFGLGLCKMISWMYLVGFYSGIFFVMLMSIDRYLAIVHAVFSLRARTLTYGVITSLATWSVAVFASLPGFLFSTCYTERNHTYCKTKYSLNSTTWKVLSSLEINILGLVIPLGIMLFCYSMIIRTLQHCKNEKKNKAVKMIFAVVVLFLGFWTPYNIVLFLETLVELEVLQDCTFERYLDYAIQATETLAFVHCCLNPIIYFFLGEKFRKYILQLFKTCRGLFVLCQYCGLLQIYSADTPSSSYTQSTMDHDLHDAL
Experiment: β-Arrestin recruitment assay (CHO-K1 CCR4 β-Arrestin cells stimulated with recombinant human CCL22)
Type: cell-based
Details: CCL22 10 nM stimulation; for IC50: read-out: CCR4 antagonistic activity IC50 (μM) in range; for inhibition: read-out: % inhibition at 5 μM/30 μM (% E-Max)
Protocol: CHO-K1 CCR4 β-Arrestin cells were seeded and incubated overnight at 37° C. in a CO2 incubator for adherence. Next day, cells were pretreated with various concentrations of CCR4 modulators for 30 mins at 37° C. The cells were stimulated with recombinant human CCL22 (10 nM) and further incubated for 90 mins. Working detection solution was added and incubated at room temperature for 1 hour after which the chemiluminescent signal was read using a luminometer.
Exemplary compounds of the present application were screened by the above-mentioned assay and the results were tabulated.

[1] = CHO-K1, read-out: % inhibition 30 μM (% E-Max)

Structure (SMILES)	IC50	inhibition [1]	inhibition (CHO-K1, at 30 μM)	% inhibition at 5 μM/30 μM (% E-Max)
C[C@H](Nc1c(OC(F)F)ccc2nc(N3CC([C@H]4CCCN([C@H]5C[C@](C)(C(=O)O)C5)C4)C3)sc12)c1ncc(Cl)cc1Cl (single isomer, unassigned) [Compound 49]	0.25 to 0.5 µM	99%		
C[C@@H](Nc1c(F)ccc2nc(N3CC(C4CN([C@H]5C[C@](C)(C(=O)O)C5)CCO4)C3)sc12)c1ccc(Cl)cc1Cl (some centres unmarked) [Compound 26]	< 0.25 µM	103%		
C[C@@H](Nc1c(F)ccc2nc(N3CC([C@H]4CCCN([C@H]5C[C@](C)(C(=O)O)C5)C4)C3)sc12)c1ncc(F)cc1F [Compound 39]		39%		
C[C@@H](Nc1ncnc2nc(N3CC([C@H]4CCCN([C@H]5C[C@](C)(C(=O)O)C5)C4)C3)sc12)c1ccc(Cl)cc1Cl [Compound 32, (1R,3r)-3-((R)-3-(1-(7-(((R)-1-(2,4-Dichlorophenyl)ethyl)amino)thiazolo[4,5-d]pyrimidin-2-yl)azetidin-3-yl)piperidin-1-yl)-1-methylcyclobutane-1-carboxylic acid]	< 0.25 µM	104%		
C[C@H](Nc1c(OC(F)F)ccc2nc(N3CC([C@H]4CCCN([C@H]5C[C@](C)(C(=O)O)C5)C4)C3)sc12)c1ncc(F)cc1F [Compound 52]	> 0.5 µM		99%	
CC(Nc1c(OC(F)F)ccc2nc(N3CC([C@H]4CCCN([C@H]5C[C@](C)(C(=O)O)C5)C4)C3)sc12)c1ncc(Cl)cc1Cl (some centres unmarked) [Compound 47]	> 0.5 µM	93%		
C[C@@H](Nc1c(F)cnc2nc(N3CC([C@H]4CCCN([C@H]5C[C@](C)(C(=O)O)C5)C4)C3)sc12)c1ncc(F)cc1F (single isomer, unassigned) [Compound 45]	> 0.5 µM	89%		
C[C@@H](Nc1c(F)ccc2nc(N3CC(C4CN([C@H]5C[C@](C)(C(=O)O)C5)CCO4)C3)sc12)c1ccc(Cl)cc1Cl (single isomer, unassigned) [Compound 28]				72% at 5 μM
C[C@H](Nc1c(F)ccc2nc(N3CC([C@H]4CCCN([C@H]5C[C@](C)(C(=O)O)C5)C4)C3)sc12)c1ncc(F)cc1F [Compound 40]	0.25 to 0.5 µM	84%		
C[C@@H](Nc1c(F)ccc2nc(N3CC([C@H]4CCCN([C@H]5C[C@](C)(C(=O)O)C5)C4)C3)sc12)c1ncc(Cl)cc1Cl [Compound 36, (1R,3r)-3-((R)-3-(1-(7-(((R)-1-(3,5-dichloropyridin-2-yl)ethyl)amino)-6-fluorobenzo[d]thiazol-2-yl)azetidin-3-yl)piperidin-1-yl)-1-methylcyclobutane-1-carboxylic acid]	< 0.25 µM			103% at 5 μM
C[C@@H](Nc1c(F)ccc2nc(N3CC([C@H]4CCCN([C@H]5C[C@](C)(C(=O)O)C5)C4)C3)sc12)c1ncc(Cl)cc1Cl [Compound 37, (1R,3r)-3-((R)-3-(1-(7-(((S)-1-(3,5-dichloropyridin-2-yl)ethyl)amino)-6-fluorobenzo[d]thiazol-2-yl)azetidin-3-yl)piperidin-1-yl)-1-methylcyclobutane-1-carboxylic acid]	> 0.5 µM			78% at 5 μM
CC(Nc1c(F)ccc2nc(N3CC([C@H]4CCCN([C@H]5C[C@](C)(C(=O)O)C5)C4)C3)sc12)c1ncc(Cl)cc1Cl (mixture of isomers) [Compound 35, (1R,3r)-3-((3R)-3-(1-(7-((1-(3,5-dichloropyridin-2-yl)ethyl)amino)-6-fluorobenzo[d]thiazol-2-yl)azetidin-3-yl)piperidin-1-yl)-1-methylcyclobutane-1-carboxylic acid]	< 0.25 µM	102%		
C[C@H](Nc1c(F)cnc2nc(N3CC([C@H]4CCCN([C@H]5C[C@](C)(C(=O)O)C5)C4)C3)sc12)c1ncc(F)cc1F (single isomer, unassigned) [Compound 46]	0.25 to 0.5 µM	99%		
C[C@@H](Nc1c(OC(F)F)ccc2nc(N3CC([C@H]4CCCN([C@H]5C[C@](C)(C(=O)O)C5)C4)C3)sc12)c1ncc(F)cc1F (single isomer, unassigned) [Compound 51]	> 0.5 µM		77%	
CC(Nc1c(F)cnc2nc(N3CC([C@H]4CCCN([C@H]5C[C@](C)(C(=O)O)C5)C4)C3)sc12)c1ncc(Cl)cc1Cl (some centres unmarked) [Compound 41]	0.25 to 0.5 µM	101%		
C[C@@H](Nc1nc(C(F)(F)F)nc2nc(N3CC([C@H]4CCCN([C@H]5C[C@](C)(C(=O)O)C5)C4)C3)sc12)c1ccc(Cl)cc1Cl [Compound 34]	0.25 to 0.5 µM	102%		
C[C@@H](Nc1c(F)ccc2nc(N3CC(C4CN([C@H]5C[C@](C)(C(=O)O)C5)CCO4)C3)sc12)c1ccc(Cl)cc1Cl (single isomer, unassigned) [Compound 27]	0.25 to 0.5 µM			99% at 5 μM

Other lines, results leading:

IC50	inhibition [1]	inhibition (CHO-K1, at 30 μM)	% inhibition at 5 μM/30 μM (% E-Max)	Structure (SMILES)
< 0.25 µM	103%			C[C@@H](Nc1c(F)ncc2nc(N3CC([C@H]4CCCN([C@H]5C[C@](C)(C(=O)O)C5)C4)C3)sc12)c1ccc(Cl)cc1Cl [Compound 30]
< 0.25 µM	104%			C[C@@H](Nc1c(Cl)ccc2nc(N3CC([C@H]4CCCN([C@H]5C[C@](C)(C(=O)O)C5)C4)C3)sc12)c1ccc(Cl)cc1Cl [Compound 23]
< 0.25 µM	101%			C[C@@H](Nc1c(F)ccc2nc(N3CC([C@H]4CCCN([C@H]5C[C@](C)(C(=O)O)C5)C4)C3)sc12)c1ccc(Cl)cc1Cl [Compound 25]
< 0.25 µM	103%			Cc1nc(N[C@H](C)c2ccc(Cl)cc2Cl)c2sc(N3CC([C@H]4CCCN([C@H]5C[C@](C)(C(=O)O)C5)C4)C3)nc2n1 [Compound 33]
0.25 to 0.5 µM		101%		C[C@@H](Nc1cc(Cl)cc2nc(N3CC([C@H]4CCCN([C@H]5C[C@](C)(C(=O)O)C5)C4)C3)oc12)c1ccc(Cl)cc1Cl [Compound 7]
0.25 to 0.5 µM	93.8%			C[C@@H](Nc1c(C(N)=O)ccc2nc(N3CC([C@H]4CCCN([C@H]5C[C@](C)(C(=O)O)C5)C4)C3)oc12)c1ccc(Cl)cc1Cl [Compound 19]
0.25 to 0.5 µM	101%			C[C@@H](Nc1cncc2nc(N3CC([C@H]4CCCN([C@H]5C[C@](C)(C(=O)O)C5)C4)C3)oc12)c1ccc(Cl)cc1Cl [Compound 15]
< 0.25 µM	103%			Cc1ccc2nc(N3CC([C@H]4CCCN([C@H]5C[C@](C)(C(=O)O)C5)C4)C3)oc2c1N[C@H](C)c1ccc(Cl)cc1Cl [Compound 18]
		71%		C[C@@H](Nc1cccc2c1nc(N1CC([C@H]3CCCN([C@H]4C[C@](C)(C(=O)O)C4)C3)C1)n2C)c1ccc(Cl)cc1Cl [Compound 4]
0.25 to 0.5 µM	102%			C[C@@H](Nc1cccc2nc(N3CC([C@H]4CCCN([C@H]5C[C@](C)(C(=O)O)C5)C4)C3)sc12)c1ccc(Cl)cc1Cl [Compound 8]
< 0.25 µM		99.5%		C[C@@H](Nc1cccc2nc(N3CC([C@H]4CCCN([C@H]5C[C@](C)(C(=O)O)C5)C4)C3)oc12)c1ccc(Cl)cc1Cl [Compound 2, (1R,3r)-3-((R)-3-(1-(7-(((R)-1-(2,4-dichlorophenyl)ethyl)amino)benzo[d]oxazol-2-yl)azetidin-3-yl)piperidin-1-yl)-1-methylcyclobutane-1-carboxylic acid]
< 0.25 µM	103%			Cc1cc2nc(N3CC([C@H]4CCCN([C@H]5C[C@](C)(C(=O)O)C5)C4)C3)oc2c(N[C@H](C)c2ccc(Cl)cc2Cl)c1Cl [Compound 9]
< 0.25 µM	101%			C[C@@H](Nc1c(OC(F)F)ccc2nc(N3CC([C@H]4CCCN([C@H]5C[C@](C)(C(=O)O)C5)C4)C3)oc12)c1ccc(Cl)cc1Cl [Compound 11]
< 0.25 µM		103%		C[C@@H](Nc1c(Cl)ccc2nc(N3CC([C@H]4CCCN([C@H]5C[C@](C)(C(=O)O)C5)C4)C3)oc12)c1ccc(Cl)cc1Cl [Compound 1, (1R,3r)-3-((R)-3-(1-(6-Chloro-7-(((R)-1-(2,4-dichlorophenyl)ethyl)amino)benzo[d]oxazol-2-yl)azetidin-3-yl)piperidin-1-yl)-1-methylcyclobutane-1-carboxylic acid]
0.25 to 0.5 µM	93%			COc1ccc2nc(N3CC([C@H]4CCCN([C@H]5C[C@](C)(C(=O)O)C5)C4)C3)oc2c1N[C@H](C)c1ccc(Cl)cc1Cl [Compound 10]
		29.5%		C[C@@H](Nc1cccc2nc(N3CC([C@H]4CCCN([C@H]5C[C@](C)(C(=O)O)C5)C4)C3)n(C)c12)c1ccc(Cl)cc1Cl [Compound 22]
0.25 to 0.5 µM		102%		Cc1cc(N[C@H](C)c2ccc(Cl)cc2Cl)c2oc(N3CC([C@H]4CCCN([C@H]5C[C@](C)(C(=O)O)C5)C4)C3)nc2c1 [Compound 5]
0.25 to 0.5 µM	99.3%			C[C@@H](Nc1c(OC(F)(F)F)ccc2nc(N3CC([C@H]4CCCN([C@H]5C[C@](C)(C(=O)O)C5)C4)C3)oc12)c1ccc(Cl)cc1Cl [Compound 12]
< 0.25 µM	103%			C[C@@H](Nc1ccnc2nc(N3CC([C@H]4CCCN([C@H]5C[C@](C)(C(=O)O)C5)C4)C3)oc12)c1ccc(Cl)cc1Cl [Compound 16]
